Measured values reported in US9796700B2 (Celgene CAR LLC, priority 2013, dated 2017).

Molecular target: Erk1 (Homo sapiens (Human), UniProt P27361)
Experiment: Protein Mass Modification Assay (intact protein MALDI)
Type: binding
Outline: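 Human Erk1 was incubated 60 min at room temperature with a 10-fold molar excess of compound, then analysed as intact protein by MALDI with sinapinic acid matrix. The centroid mass shift versus untreated protein was divided by compound molecular weight to give percent modified protein.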

Chain of Erk1 (P27361 whole entry, looked up): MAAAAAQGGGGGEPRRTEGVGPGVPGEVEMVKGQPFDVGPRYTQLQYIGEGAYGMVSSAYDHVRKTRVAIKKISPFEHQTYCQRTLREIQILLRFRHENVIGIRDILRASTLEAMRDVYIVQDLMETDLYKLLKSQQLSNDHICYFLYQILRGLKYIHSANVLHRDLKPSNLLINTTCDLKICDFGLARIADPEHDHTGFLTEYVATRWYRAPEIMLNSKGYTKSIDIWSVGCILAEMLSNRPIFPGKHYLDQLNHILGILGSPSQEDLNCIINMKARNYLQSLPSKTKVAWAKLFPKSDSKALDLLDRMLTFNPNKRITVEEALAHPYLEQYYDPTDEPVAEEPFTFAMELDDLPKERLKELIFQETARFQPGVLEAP

ERK1 Mass Mod (%)	Compound
E (provided a mass modification of ≧70%)	C=CC(=O)Nc1ccccc1Nc1nc(Nc2ccc3c(c2OC)CCCC(=O)N3CCCNC(=O)OC(C)(C)C)ncc1Cl [Compound I-147, tert-butyl (3-(7-((4-((2-acrylamidophenyl)amino)-5-chloropyrimidin-2-yl)amino)-6-methoxy-2-oxo-2,3,4,5-tetrahydro-1H-benzo[b]azepin-1-yl)propyl)carbamate]
E (provided a mass modification of ≧70%)	C=CC(=O)Nc1ccccc1Nc1nc(Nc2ccc3c(c2OC)CCCC(=O)N3CCCN)ncc1Cl [Compound I-148, N-(2-((2-((1-(3-aminopropyl)-6-methoxy-2-oxo-2,3,4,5-tetrahydro-1H-benzo[b]azepin-7-yl)amino)-5-chloropyrimidin-4-yl)amino)phenyl)acrylamide]
E (provided a mass modification of ≧70%)	C=CC(=O)Nc1ccccc1Nc1nc(Nc2ccc(N(CC)C(C)=O)cc2OC)ncc1Cl [Compound I-155, N-(2-((5-chloro-2-((4-(N-ethylacetamido)-2-methoxyphenyl)amino)pyrimidin-4-yl)amino)phenyl)acrylamide]
E (provided a mass modification of ≧70%)	C=CC(=O)Nc1cc(OC)ccc1Nc1nc(Nc2ccc(N3CCCN(C(=O)OC(C)(C)C)CC3)cc2C#N)ncc1Cl [Compound I-156, tert-butyl 4-(4-((4-((2-acrylamido-4-methoxyphenyl)amino)-5-chloropyrimidin-2-yl)amino)-3-cyanophenyl)-1,4-diazepane-1-carboxylate]
E (provided a mass modification of ≧70%)	C=CC(=O)Nc1cc(OC)ccc1Nc1nc(Nc2ccc(N3CCC[C@H]3CO)cc2C#N)ncc1Cl [Compound I-163, (S)—N-(2-((5-chloro-2-((2-cyano-4-(2-(hydroxymethyl)pyrrolidin-1-yl)phenyl)amino)pyrimidin-4-yl)amino)-5-methoxyphenyl)acrylamide]
E (provided a mass modification of ≧70%)	C=CC(=O)Nc1cc(OC)ccc1Nc1nc(Nc2ccc(N(CC)C(C)=O)cc2C#N)ncc1Cl [Compound I-164, N-(2-((5-chloro-2-((2-cyano-4-(N-ethylacetamido)phenyl)amino)pyrimidin-4-yl)amino)-5-methoxyphenyl)acrylamide]
E (provided a mass modification of ≧70%)	C=CC(=O)Nc1cc(OC)ccc1Nc1nc(Nc2ccc3c(c2)CC(=O)N3CC)ncc1Cl [Compound I-166, N-(2-((5-chloro-2-((1-ethyl-2-oxoindolin-5-yl)amino)pyrimidin-4-yl)amino)-5-methoxyphenyl)acrylamide]
E (provided a mass modification of ≧70%)	C=CC(=O)Nc1ccccc1Nc1nc(Nc2ccc(N(CCCN)C(C)=O)cc2OC)ncc1Cl [Compound I-167, N-(2-((2-((4-(N-(3-aminopropyl)acetamido)-2-methoxyphenyl)amino)-5-chloropyrimidin-4-yl)amino)phenyl)acrylamide]
E (provided a mass modification of ≧70%)	C=CC(=O)Nc1ccccc1Nc1nc(Nc2ccc(N(CCN)C(C)=O)cc2OC)ncc1Cl [Compound I-168, N-(2-((2-((4-(N-(2-aminoethyl)acetamido)-2-methoxyphenyl)amino)-5-chloropyrimidin-4-yl)amino)phenyl)acrylamide]
E (provided a mass modification of ≧70%)	C=CC(=O)Nc1ccccc1Nc1nc(Nc2ccc(N(CCCNC(=O)OC(C)(C)C)C(C)=O)cc2C(F)(F)F)ncc1Cl [Compound I-169, tert-butyl (3-(N-(4-((4-((2-acrylamidophenyl)amino)-5-chloropyrimidin-2-yl)amino)-3-(trifluoromethyl)phenyl)acetamido)propyl)carbamate]
E (provided a mass modification of ≧70%)	C=CC(=O)Nc1ccccc1Nc1nc(Nc2ccc(N(CCCNC(=O)OC(C)(C)C)C(C)=O)cc2OC)ncc1Cl [Compound I-173]
E (provided a mass modification of ≧70%)	C=CC(=O)Nc1cc(OC)ccc1Nc1nc(Nc2ccc(N(CC)C(C)=O)cc2OC)ncc1Cl [Compound I-175, N-(2-((5-chloro-2-((4-(N-ethylacetamido)-2-methoxyphenyl)amino)pyrimidin-4-yl)amino)-5-methoxyphenyl)acrylamide]
E (provided a mass modification of ≧70%)	C=CC(=O)Nc1cc(OC)ccc1Nc1nc(Nc2ccc(N(CC)C(C)=O)cc2C(F)(F)F)ncc1Cl [Compound I-176, N-(2-((5-chloro-2-((4-(N-ethylacetamido)-2-(trifluoromethyl)phenyl)amino)pyrimidin-4-yl)amino)-5-methoxyphenyl)acrylamide]
E (provided a mass modification of ≧70%)	C=CC(=O)Nc1ccccc1Nc1nc(Nc2ccc(N3CCC[C@H]3C(N)=O)cc2C#N)ncc1Cl [Compound I-177, (S)-1-(4-((4-((2-acrylamidophenyl)amino)-5-chloropyrimidin-2-yl)amino)-3-cyanophenyl)pyrrolidine-2-carboxamide]
E (provided a mass modification of ≧70%)	C=CC(=O)Nc1cc(OC)ccc1Nc1nc(Nc2ccc(N3CCC[C@H]3C(N)=O)cc2C#N)ncc1Cl [Compound I-178, (S)-1-(4-((4-((2-acrylamido-4-methoxyphenyl)amino)-5-chloropyrimidin-2-yl)amino)-3-cyanophenyl)pyrrolidine-2-carboxamide]
E (provided a mass modification of ≧70%)	C=CC(=O)Nc1ccccc1Nc1nc(Nc2ccc(N3CCC[C@@H]3C(N)=O)cc2C#N)ncc1Cl [Compound I-179, (R)-1-(4-((4-((2-acrylamidophenyl)amino)-5-chloropyrimidin-2-yl)amino)-3-cyanophenyl)pyrrolidine-2-carboxamide]
E (provided a mass modification of ≧70%)	C=CC(=O)Nc1cc(OC)ccc1Nc1nc(Nc2ccc(N3CCC[C@@H]3C(N)=O)cc2C#N)ncc1Cl [Compound I-180, (R)-1-(4-((4-((2-acrylamido-4-methoxyphenyl)amino)-5-chloropyrimidin-2-yl)amino)-3-cyanophenyl)pyrrolidine-2-carboxamide]
E (provided a mass modification of ≧70%)	C=CC(=O)Nc1cc(OC)ccc1Nc1nc(Nc2ccc(N3CCC[C@@H]3CO)cc2C#N)ncc1Cl [Compound I-181, (R)—N-(2-((5-chloro-2-((2-cyano-4-(2-(hydroxymethyl)pyrrolidin-1-yl)phenyl)amino)pyrimidin-4-yl)amino)-5-methoxyphenyl)acrylamide]
E (provided a mass modification of ≧70%)	C=CC(=O)Nc1ccccc1Nc1nc(Nc2ccc(NC(=O)COC(C)=O)cc2OC)ncc1Cl [Compound I-183, 2-((4-((4-((2-acrylamidophenyl)amino)-5-chloropyrimidin-2-yl)amino)-3-methoxyphenyl)amino)-2-oxoethyl acetate]
E (provided a mass modification of ≧70%)	C=CC(=O)Nc1ccccc1Nc1nc(Nc2ccc(NS(C)(=O)=O)cc2OC)ncc1Cl [Compound I-185, N-(2-((5-chloro-2-((2-methoxy-4-(methylsulfonamido)phenyl)amino)pyrimidin-4-yl)amino)phenyl)acrylamide]
E (provided a mass modification of ≧70%)	C=CC(=O)Nc1ccccc1Nc1nc(Nc2ccc(NC(=O)CO)cc2OC)ncc1Cl [Compound I-186, N-(2-((5-chloro-2-((4-(2-hydroxyacetamido)-2-methoxyphenyl)amino)pyrimidin-4-yl)amino)phenyl)acrylamide]
E (provided a mass modification of ≧70%)	C=CC(=O)Nc1ccccc1Nc1nc(Nc2cc(C(=O)NOCCO)ccc2OC)ncc1Cl [Compound I-194, 3-((4-((2-acrylamidophenyl)amino)-5-chloropyrimidin-2-yl)amino)-N-(2-hydroxyethoxy)-4-methoxybenzamide]
E (provided a mass modification of ≧70%)	C=CC(=O)Nc1ccccc1Nc1nc(Nc2cc(C(=O)NOC)ccc2C#N)ncc1Cl [Compound I-195, 3-((4-((2-acrylamidophenyl)amino)-5-chloropyrimidin-2-yl)amino)-4-cyano-N-methoxybenzamide]
E (provided a mass modification of ≧70%)	C=CC(=O)N(C)c1ccccc1Nc1nc(Nc2cc(C(N)=O)ccc2C#N)ncc1Cl [Compound I-196, 3-((5-chloro-4-((2-(N-methylacrylamido)phenyl)amino)pyrimidin-2-yl)amino)-4-cyanobenzamide]
E (provided a mass modification of ≧70%)	C=CC(=O)Nc1cc(F)ccc1Nc1nc(Nc2cc(C(N)=O)ccc2C#N)ncc1Cl [Compound I-207, 3-(4-(2-acrylamido-4-fluorophenylamino)-5-chloropyrimidin-2-ylamino)-4-cyanobenzamide]

Compound	ERK1 Mass Mod (%)
C=CC(=O)Nc1ccccc1Nc1nc(Nc2ccc(N(CCNC(=O)OC(C)(C)C)C(C)=O)cc2OC)ncc1Cl [Compound I-174, tert-butyl (2-(N-(4-((4-((2-acrylamidophenyl)amino)-5-chloropyrimidin-2-yl)amino)-3-methoxyphenyl)acetamido)ethyl)carbamate]	E (key: E: provided a mass modification of ≧70%; F: provided a mass modification of 31-69%; G: proived a mass modification ≦30%)
C=CC(=O)Nc1ccccc1Nc1nc(Nc2cc(C(=O)NOCCO)ccc2C#N)ncc1Cl [Compound I-202, 3-((4-((2-acrylamidophenyl)amino)-5-chloropyrimidin-2-yl)amino)-4-cyano-N-(2-hydroxyethoxy)benzamide]	F (key: E: provided a mass modification of ≧70%; F: provided a mass modification of 31-69%; G: proived a mass modification ≦30%)
C=CC(=O)Nc1ccccc1Nc1nc(Nc2ccc(F)cc2C)ncc1Cl [Compound I-209, N-(2-((5-chloro-2-((4-fluoro-2-methylphenyl)amino)pyrimidin-4-yl)amino)phenyl)acrylamide]	F (provided a mass modification of 31-69%)
C=CC(=O)Nc1ccccc1Nc1nc(Nc2ccc(F)cc2OC)ncc1Cl [Compound I-210, N-(2-((5-chloro-2-((4-fluoro-2-methoxyphenyl)amino)pyrimidin-4-yl)amino)phenyl)acrylamide]	F (provided a mass modification of 31-69%)
